We go through three molecules from US7572778B2, “Fluorocombretastatin and derivatives thereof” (Sigma-Tau Industrie Farmaceutiche Riunite S.p.A., priority 2003, dated 2009).

Data set [1] deals with NCI-H460 human lung carcinoma. The experiment in a line: Tumor growth evaluation, NCI-H460 s.c. xenograft. The class given is in vivo, CD-1 nude mice. The method, then: NCI-H460 human lung carcinoma from in vitro cell cultures were injected s.c. (3×10^6 cells/100 μl/mouse) into the right flank of CD-1 nude mice. Four days after tumor implant mice started to be treated with ST2493 at the dose of 50 mg/kg intraperitoneally according to the following schedule: qdx5/w/3wks. CA-4P (combretastatin A-4 P) at the same dose was used as positive control.
All animals were weighed during the whole treatment period, in order to adjust the volume of drug administration and to record the percent of body weight loss due in the course of treatment.
In a following experiment with the same animal model ST2493 (prodrug of ST2303) was administered intravenously at the doses of 25 and 50 mg/kg according to a q2dx6 schedule.
Tumor growth was assessed by twice a week measurements of the shortest (width) and the longest (length) diameters of each tumor by a Vernier caliper and the antitumor activity was evaluated in terms of percent inhibition of tumor growth. Tumor volume (or tumor weight*) was calculated according to the following formula using caliper measurements: tumor volume or TV (mm^3)=[length (mm)×width (mm)^2]/2.
Tumor volume inhibition percent (% TVI) was calculated according to the equation: 100−[(mean tumor volume of treated group/mean tumor volume of control group)×100]. A P value≦0.05 was considered statistically significant.

In data set [2] the test system is bovine microvascular endothelial cells (BMEC). The experiment in a line: Cytotoxicity assay (sulforhodamine B), BMEC. The class given is cell-based. The note with it: Bos taurus, Endothelial cell, 24 h exposure, then 48 h drug-free. The method, then:
(§1) Primary cultures of bovine microvascular endothelial cells (BMEC) were obtained from bovine adrenal glands as described by Folkman (Folkman J., Haudenschild C. C., Zetter B. R. Long-term culture of capillary endothelial cells. Proc. Natl. Acad. Sci. USA, 1979 October; 76(10): 5217-21). BMEC were maintained in DMEM supplemented with 20% fetal calf serum (FCS), 50 units/ml heparin (Sigma, St. Louis, Mo.), 50 μg/ml bovine brain extract, 100 units/ml gentamycin. HUVEC (Human umbilical vein endothelial cells) were obtained from BioWhittaker (Walkersville, Md.) and grown in EGM-2 (BioWhittaker). EA-hy 926 cell line, a HUVEC-adenocarcinoma immortalized cell hybrid, was obtained from the Dipartimento di Scienze Biomediche e Oncologia Umana (Universita di Bari, Italy), and cultured in DMEM supplemented with 10% serum and 50 μg/ml gentamycin sulfate.
(§2) To test the effects of ST2303 on growth, cells were seeded in 96-well tissue culture plates (Corning) at approximately 10% confluence and were allowed to attach and recover for at least 24 h. Varying concentrations of the compound were then added to each well. […] The number of surviving cells was then determined by staining with sulforhodamine B as described by Skehan et al. (1990). ST2303 inhibitory concentration 50 (IC50)±SD on different cell lines, evaluated by “ALLFIT” computer program, are shown in Table 1.

Data set [3] deals with HUVEC (Human umbilical vein endothelial cells). The experiment in a line: Cytotoxicity assay (sulforhodamine B), HUVEC. The note with it: 24 h exposure, then 48 h drug-free. Type of data set: cell-based. On the procedure: as §1, §2
The subject of a further data set is EA-hy 926 cell line. The experiment in a line: Cytotoxicity assay (sulforhodamine B), EA-hy 926. Type of data set: cell-based. The note with it: Homo sapiens, EAHY.926, 24 h exposure, then 48 h drug-free. On the procedure: as §1, §2
For data set [4], the system named is NCIH460 human lung carcinoma. The experiment in a line: Cytotoxicity assay (sulforhodamine B), NCI-H460. The class given is cell-based. Particulars: 24 h exposure, then 48 h drug-free. The method, then:
(§3) The following cell lines were purchased from ATCC and cultured according to manufacturer's instructions: NCIH460 human lung carcinoma, MeWo human melanoma, MES-SA human uterine sarcoma and HCT116 human colorectal carcinoma. HT-29 human colon adenocarcinoma cells and A2780 human ovarian carcinoma, obtained from Istituto Nazionale Tumori (Milan, Italy), were grown in RPMI 1640 (GIBCO) containing 10% fetal bovine serum (GIBCO) and 50 μg/ml gentamycin sulfate.
(§4) To test the effects of ST2303 on growth, cells were seeded in 96-well tissue culture plates (Corning) at approximately 10% confluence and were allowed to attach and recover for at least 24 h. Varying concentrations of the compound were then added to each well. The plates were incubated for 24 h and then washed before incubating them for additional 48 h. The number of surviving cells was then determined by staining with sulforhodamine B as described by Skehan et al. (1990). ST2303 inhibitory concentration 50 (IC50)±SD on different cell lines, evaluated by “ALLFIT” computer program, are shown in Table 1.

The subject of data set [5] is HT-29 human colon adenocarcinoma cells. The experiment in a line: Cytotoxicity assay (sulforhodamine B), HT-29. Particulars: HT29, 24 h exposure, then 48 h drug-free. Type of data set: cell-based. On the procedure:
as §3, §4

In the next data set the test system is MeWo human melanoma. The data set can be described thus: Cytotoxicity assay (sulforhodamine B), MeWo. Particulars: 24 h exposure, then 48 h drug-free. The class given is cell-based. On the procedure:
as §3, §4

Data set [6] concerns A2780 human ovarian carcinoma. The experiment in a line: Cytotoxicity assay (sulforhodamine B), A2780. Type of data set: cell-based. Particulars: 24 h exposure, then 48 h drug-free. On the procedure:
as §3, §4

For data set [7], the system named is MES-SA human uterine sarcoma. The experiment in a line: Cytotoxicity assay (sulforhodamine B), MES-SA. Type of data set: cell-based. Particulars: 24 h exposure, then 48 h drug-free. The method, then:
as §3, §4

The test system of data set [8] is HCT116 human colorectal carcinoma. The experiment in a line: Cytotoxicity assay (sulforhodamine B), HCT116. The note with it: HCT 116, 24 h exposure, then 48 h drug-free. The class given is cell-based. The method, then:
as §3, §4

Another data set has as its system tubulin. The experiment in a line: Tubulin polymerisation inhibition test (CytoDINAMIX Screen, turbidity at 340 nm). The class given is biochemical. The note with it: tubulin 3 mg/ml, 37° C.; mean of 3 independent determinations; read-out: IC50 ± SE, tubulin polymerisation. The method, then:
The tubulin polymerisation test was performed by CytoDINAMIX Screen™. Turbidity from tubulin polimerisation was measured with a Victor2 from Wallac. HTS-tubulin was diluted to 3 mg/ml in buffer PEM [100 mM PIPES (pH 6.9), 1 mM EGTA and 1 mM MgCl2] containing 1 mM GTP (GPEM) plus 5% glycerol, and kept on ice. Aliquots of this solution was then placed at 37° C. in presence of taxol (3 μM) or colcemid (3 μM) or combretastatin (ST1986) or compounds to examinate, and absorbance was measured at 340 nm. The IC50 values were determined by non-linear regression analysis using “Prism GraphPad” software.
The value indicated in Table 3 is the mean of 3 independent determinations.

Where [9] appears, read: i.p. 50 mg/kg, qdx5/w/3wks, day 11 after cell injection.
The mark [10] stands for this setting: i.p. 50 mg/kg, qdx5/w/3wks, day 28 after cell injection.

Marks after values point to notes of the source that are not given here.

For `COc1ccc(/C=C\c2cc(OC)c(OC)c(OC)c2)cc1OP(=O)(O)O` [CA-4P, combretastatin A-4 P, reference compound], the “% BWL (body weight loss)” value in data set [1] (i.p. 50 mg/kg, qdx5/w/3wks) is reported as 3%. Moreover, in data set [1] (i.p. 50 mg/kg, qdx5/w/3wks), the mortality is 0/8. The “% TVI (tumor volume inhibition)” value in data set [1] (setting [9]) was 47** %; in [1] (setting [10]) it was 61*** %.

On to `COc1ccc(/C(F)=C(/F)c2cc(OC)c(OC)c(OC)c2)cc1O` [ST2303, (Z)-1,2-difluoro-1-(3,4,5 trimethoxyphenyl)-2-(3-hydroxy-4-methoxyphenyl)ethene], for which the IC50 in [2] was 1 ± 0.5 nM; in data set [3], 1 ± 0.3 nM; in the data set with EA-hy 926 cell line, 5 ± 0.5 nM; in [4], 3 ± 0.005 nM; in data set [5], more than 200 nM; in the data set with MeWo human melanoma it was 3.6 ± 0.0003 nM. Moreover, the IC50 was 3 ± 0.001 nM in data set [6], less than 1 nM in [7], 2.2 ± 0.05 nM in [8] and 7700 ± 120 nM in the data set with tubulin.

`COc1ccc(/C(F)=C(/F)c2cc(OC)c(OC)c(OC)c2)cc1OP(=O)([O-])[O-].[Na+].[Na+]` [ST2493, (Z)-1,2-difluoro-1-(3,4,5-trimethoxyphenyl)-2-(3-hydroxy-4-methoxyphenyl)ethene o-disodium phosphate]: the “TVI compared to vehicle (in words)” value in [1] (both intraperitoneal and intravenous administration) was “significant TVI”. Besides, the “% BWL (body weight loss)” value in data set [1] (i.p. 50 mg/kg, qdx5/w/3wks) is reported as 8%; in [1] (i.v. 25 mg/kg, q2dx6) it was 8%; in data set [1] (i.v. 50 mg/kg, q2dx6), 8%. Further, the mortality in data set [1] (i.p. 50 mg/kg, qdx5/w/3wks) was 0/8; in data set [1] (i.v. 25 mg/kg, q2dx6), 0/8; in data set [1] (i.v. 50 mg/kg, q2dx6) it was 0/8. Moreover, the “% TVI (tumor volume inhibition)” value is given as 68** % in data set [1] (setting [9]); 73*** % in [1] (setting [10]); 63** % in [1] (i.v. 25 mg/kg, q2dx6, day 11 after cell injection); 64*** % in data set [1] (i.v. 25 mg/kg, q2dx6, day 28 after cell injection); 73** % in data set [1] (i.v. 50 mg/kg, q2dx6, day 11 after cell injection); 73** % in data set [1] (i.v. 50 mg/kg, q2dx6, day 28 after cell injection). Besides, the “TVI compared with the same dose of CA-4P (in words)” value in data set [1] (intraperitoneal, 50 mg/kg, p=0.0095 at day 11, p=0.0180 at day 28, Mann Whitney's test) is on record as “significant difference”.
